Non-standard residues stand in square brackets, D forms with d. Residues, ends and D or L forms follow the SMILES beside them. *: point of attachment. Desaminotyrosyl = O=C(CCc1ccc(O)cc1)*; NMeY = CN[C@@H](Cc1ccc(O)cc1)C(=O)O; Nle = CCCC[C@H](N)C(=O)O; Orn = NCCC[C@H](N)C(=O)O; dAbu = CC[C@@H](N)C(=O)O; Abu = CC[C@H](N)C(=O)O; Aoc = NCCCCCCCC(=O)O; Ava = NCCCCC(=O)O; GABA = NCCCC(=O)O
Biological target: T1, GHRH receptor (human pituitary membrane homogenates) (Homo sapiens, UniProt Q02643)
T1 sequence (Q02643 23-423): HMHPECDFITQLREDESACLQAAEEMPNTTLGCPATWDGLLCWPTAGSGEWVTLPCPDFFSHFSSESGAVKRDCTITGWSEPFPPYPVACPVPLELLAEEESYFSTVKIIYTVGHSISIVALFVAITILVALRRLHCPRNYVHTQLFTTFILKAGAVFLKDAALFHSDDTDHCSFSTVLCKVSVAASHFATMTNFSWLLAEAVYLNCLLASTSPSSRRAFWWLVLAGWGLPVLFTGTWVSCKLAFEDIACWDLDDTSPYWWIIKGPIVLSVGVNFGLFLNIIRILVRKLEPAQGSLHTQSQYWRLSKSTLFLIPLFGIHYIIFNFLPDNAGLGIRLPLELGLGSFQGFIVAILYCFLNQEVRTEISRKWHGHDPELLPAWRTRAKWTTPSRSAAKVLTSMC
Assay: GHRH receptor binding, ligand competition with 125I-labeled JV-1-42 (Table 7)
Design: Normal human pituitaries were purchased from the National Hormone and Peptide Program; tissue National Hormone and Peptide Program (A. F. Parlow, Harbor-UCLA Medical Center, Torrance, Calif.); host or cells: normal human pituitary, membrane fraction / homogenate
Conditions: JI-38 = 1

| SMILES | Relative affinitiy (Binding potency) vs JI-38 |
| --- | --- |
| CCCC[C@H](NC(=O)[C@@H](NC(=O)[C@H](CC(=O)O)NC(=O)[C@H](CCC(N)=O)NC(=O)[C@H](CC(C)C)NC(=O)[C@H](CC(C)C)NC(=O)[C@H](CCCN)NC(=O)[C@H](CCCNC(=N)N)NC(=O)[C@H](C)NC(=O)[C@H](CO)NC(=O)[C@H](CC(C)C)NC(=O)[C@H](CCC(N)=O)NC(=O)[C@H](CC)NC(=O)[C@H](CC(C)C)NC(=O)[C@@H](NC(=O)[C@H](CCCN)NC(=O)[C@H](CCCNC(=N)N)NC(=O)[C@H](Cc1ccc(O)cc1)NC(=O)[C@H](CO)NC(=O)[C@H](CC(N)=O)NC(=O)[C@@H](NC(=O)[C@H](Cc1ccccc1)NC(=O)[C@@H](NC(=O)[C@H](C)NC(=O)[C@H](CC(=O)O)NC(=O)[C@@H](C)NC(=O)[C@H](Cc1ccc(O)cc1)NC)[C@@H](C)CC)[C@@H](C)O)C(C)C)[C@@H](C)CC)C(=O)N[C@@H](CC(=O)O)C(=O)N[C@@H](CCCNC(=N)N)C(=O)NCCCCCCCC(N)=O [Peptide P-21303, [N—Me-Tyr^1, D-Ala^2, Orn^12, Abu^15, Orn^21, Nle^27, Asp^28, Amc^30]hGHRH(1-30)NH2] (H-[NMeY][dA]DAIFTNSYR[Orn]VL[Abu]QLSAR[Orn]LLQDI[Nle]DR[Aoc]-NH2) | 2.32 |
| CCCC[C@H](NC(=O)[C@@H](NC(=O)[C@H](CC(=O)O)NC(=O)[C@H](CCC(N)=O)NC(=O)[C@H](CC(C)C)NC(=O)[C@H](CC(C)C)NC(=O)[C@H](CCCN)NC(=O)[C@H](CCCNC(=N)N)NC(=O)[C@H](C)NC(=O)[C@H](CO)NC(=O)[C@H](CC(C)C)NC(=O)[C@H](CCC(N)=O)NC(=O)[C@H](CC)NC(=O)[C@H](CC(C)C)NC(=O)[C@@H](NC(=O)[C@H](CCCN)NC(=O)[C@H](CCCNC(=N)N)NC(=O)[C@H](Cc1ccc(O)cc1)NC(=O)[C@H](CO)NC(=O)[C@H](CCC(N)=O)NC(=O)[C@@H](NC(=O)[C@H](Cc1ccccc1)NC(=O)[C@@H](NC(=O)[C@H](C)NC(=O)[C@H](CC(=O)O)NC(=O)[C@H](C)NC(=O)CCc1ccc(O)cc1)[C@@H](C)CC)[C@@H](C)O)C(C)C)[C@@H](C)CC)C(=O)N[C@@H](CC(=O)O)C(=O)N[C@@H](CCCNC(=N)N)C(=O)NCCCCC(N)=O [Peptide P-22327, [Dat^1, Gln^8, Orn^12, Abu^15, Orn^21, Nle^27, Asp^28, Apa^30]hGHRH(1-30)NH2] (Desaminotyrosyl-ADAIFTQSYR[Orn]VL[Abu]QLSAR[Orn]LLQDI[Nle]DR[Ava]-NH2) | 2.18 |
| CCCC[C@H](NC(=O)[C@@H](NC(=O)[C@H](CC(=O)O)NC(=O)[C@H](CCC(N)=O)NC(=O)[C@H](CC(C)C)NC(=O)[C@H](CC(C)C)NC(=O)[C@H](CCCN)NC(=O)[C@H](CCCNC(=N)N)NC(=O)[C@H](C)NC(=O)[C@H](CO)NC(=O)[C@H](CC(C)C)NC(=O)[C@H](CCC(N)=O)NC(=O)[C@H](CC)NC(=O)[C@H](CC(C)C)NC(=O)[C@@H](NC(=O)[C@H](CCCN)NC(=O)[C@H](CCCNC(=N)N)NC(=O)[C@H](Cc1ccc(O)cc1)NC(=O)[C@H](CO)NC(=O)[C@H](CC(N)=O)NC(=O)[C@@H](NC(=O)[C@H](Cc1ccccc1)NC(=O)[C@@H](NC(=O)[C@H](C)NC(=O)[C@H](CC(=O)O)NC(=O)[C@H](CC)NC(=O)[C@H](Cc1ccc(O)cc1)NC)[C@@H](C)CC)[C@@H](C)O)C(C)C)[C@@H](C)CC)C(=O)N[C@@H](CO)C(=O)N[C@@H](CCCNC(=N)N)C(=O)NCCCC(N)=O [Peptide P-25503, [N—Me-Tyr^1, Abu^2, Orn^12, Abu^15, Orn^21, Nle^27, Gab^30]hGHRH(1-30)NH2] (H-[NMeY][Abu]DAIFTNSYR[Orn]VL[Abu]QLSAR[Orn]LLQDI[Nle]SR[GABA]-NH2) | 3.67 |
| CCCC[C@H](NC(=O)[C@@H](NC(=O)[C@H](CC(=O)O)NC(=O)[C@H](CCC(N)=O)NC(=O)[C@H](CC(C)C)NC(=O)[C@H](CC(C)C)NC(=O)[C@H](CCCN)NC(=O)[C@H](CCCNC(=N)N)NC(=O)[C@H](C)NC(=O)[C@H](CO)NC(=O)[C@H](CC(C)C)NC(=O)[C@H](CCC(N)=O)NC(=O)[C@H](CC)NC(=O)[C@H](CC(C)C)NC(=O)[C@@H](NC(=O)[C@H](CCCN)NC(=O)[C@H](CCCNC(=N)N)NC(=O)[C@H](Cc1ccc(O)cc1)NC(=O)[C@H](CO)NC(=O)[C@H](CC(N)=O)NC(=O)[C@@H](NC(=O)[C@H](Cc1ccccc1)NC(=O)[C@@H](NC(=O)[C@H](C)NC(=O)[C@H](CC(=O)O)NC(=O)[C@@H](CC)NC(=O)CCc1ccc(O)cc1)[C@@H](C)CC)[C@@H](C)O)C(C)C)[C@@H](C)CC)C(=O)N[C@@H](CO)C(=O)N[C@@H](CCCNC(=N)N)C(=O)NCCCC(N)=O [Peptide P-25504, [Dat^1, D-Abu^2, Orn^12, Abu^15, Orn^21, Nle^27, Gab^30]hGHRH(1-30)NH2] (Desaminotyrosyl-[dAbu]DAIFTNSYR[Orn]VL[Abu]QLSAR[Orn]LLQDI[Nle]SR[GABA]-NH2) | 3.02 |
| CCCC[C@H](NC(=O)[C@@H](NC(=O)[C@H](CC(=O)O)NC(=O)[C@H](CCC(N)=O)NC(=O)[C@H](CC(C)C)NC(=O)[C@H](CC(C)C)NC(=O)[C@H](CCCN)NC(=O)[C@H](CCCNC(=N)N)NC(=O)[C@H](C)NC(=O)[C@H](CO)NC(=O)[C@H](CC(C)C)NC(=O)[C@H](CCC(N)=O)NC(=O)[C@H](CC)NC(=O)[C@H](CC(C)C)NC(=O)[C@@H](NC(=O)[C@H](CCCN)NC(=O)[C@H](CCCNC(=N)N)NC(=O)[C@H](Cc1ccc(O)cc1)NC(=O)[C@H](CO)NC(=O)[C@H](CC(N)=O)NC(=O)[C@@H](NC(=O)[C@H](Cc1ccccc1)NC(=O)[C@@H](NC(=O)[C@H](C)NC(=O)[C@H](CC(=O)O)NC(=O)[C@@H](C)NC(=O)CCc1ccc(O)cc1)[C@@H](C)CC)[C@@H](C)O)C(C)C)[C@@H](C)CC)C(=O)N[C@@H](CC(=O)O)C(=O)N[C@@H](CCCNC(=N)N)C(=O)NC [Peptide P-27400, [Dat^1, D-Ala^2, Orn^12, Abu^15, Orn^21, Nle^27, Asp^28]hGHRH(1-29)NH—CH3] (Desaminotyrosyl-[dA]DAIFTNSYR[Orn]VL[Abu]QLSAR[Orn]LLQDI[Nle]DR-NHMe) | 1.30 |
| CCCC[C@H](NC(=O)[C@@H](NC(=O)[C@H](CC(=O)O)NC(=O)[C@H](CCC(N)=O)NC(=O)[C@H](CC(C)C)NC(=O)[C@H](CC(C)C)NC(=O)[C@H](CCCN)NC(=O)[C@H](CCCNC(=N)N)NC(=O)[C@H](C)NC(=O)[C@H](CO)NC(=O)[C@H](CC(C)C)NC(=O)[C@H](CCC(N)=O)NC(=O)[C@H](CC)NC(=O)[C@H](CC(C)C)NC(=O)[C@@H](NC(=O)[C@H](CCCN)NC(=O)[C@H](CCCNC(=N)N)NC(=O)[C@H](Cc1ccc(O)cc1)NC(=O)[C@H](CO)NC(=O)[C@H](CCC(N)=O)NC(=O)[C@@H](NC(=O)[C@H](Cc1ccccc1)NC(=O)[C@@H](NC(=O)[C@H](C)NC(=O)[C@H](CC(=O)O)NC(=O)[C@@H](C)NC(=O)CCc1ccc(O)cc1)[C@@H](C)CC)[C@@H](C)O)C(C)C)[C@@H](C)CC)C(=O)N[C@@H](CC(=O)O)C(=O)N[C@H](CCCNC(=N)N)C(=O)NC [Peptide P-27401, [Dat^1, D-Ala^2, Gln^8, Orn^12, Abu^15, Orn^21, Nle^27, Asp^28, D-Arg^29]hGHRH(1-29)NH—CH3] (Desaminotyrosyl-[dA]DAIFTQSYR[Orn]VL[Abu]QLSAR[Orn]LLQDI[Nle]D[dR]-NHMe) | 1.59 |
| CCCC[C@H](NC(=O)[C@@H](NC(=O)[C@H](CC(=O)O)NC(=O)[C@H](CCC(N)=O)NC(=O)[C@H](CC(C)C)NC(=O)[C@H](CC(C)C)NC(=O)[C@H](CCCN)NC(=O)[C@H](CCCNC(=N)N)NC(=O)[C@H](C)NC(=O)[C@H](CO)NC(=O)[C@H](CC(C)C)NC(=O)[C@H](CCC(N)=O)NC(=O)[C@H](CC)NC(=O)[C@H](CC(C)C)NC(=O)[C@@H](NC(=O)[C@H](CCCN)NC(=O)[C@H](CCCNC(=N)N)NC(=O)[C@H](Cc1ccc(O)cc1)NC(=O)[C@H](CO)NC(=O)[C@H](CCC(N)=O)NC(=O)[C@@H](NC(=O)[C@H](Cc1ccccc1)NC(=O)[C@@H](NC(=O)[C@H](C)NC(=O)[C@H](CC(=O)O)NC(=O)[C@H](C)NC(=O)[C@H](Cc1ccc(O)cc1)NC)[C@@H](C)CC)[C@@H](C)O)C(C)C)[C@@H](C)CC)C(=O)N[C@@H](CO)C(=O)N[C@@H](CCCNC(=N)N)C(=O)NC [Peptide P-27405, [N—Me-Tyr^1, Gln^8, Orn^12, Abu^15, Orn^21, Nle^27]hGHRH(1-29)NH—CH3] (H-[NMeY]ADAIFTQSYR[Orn]VL[Abu]QLSAR[Orn]LLQDI[Nle]SR-NHMe) | 4.03 |
| CCCC[C@H](NC(=O)[C@@H](NC(=O)[C@H](CC(=O)O)NC(=O)[C@H](CCC(N)=O)NC(=O)[C@H](CC(C)C)NC(=O)[C@H](CC(C)C)NC(=O)[C@H](CCCN)NC(=O)[C@H](CCCNC(=N)N)NC(=O)[C@H](C)NC(=O)[C@H](CO)NC(=O)[C@H](CC(C)C)NC(=O)[C@H](CCC(N)=O)NC(=O)[C@H](CC)NC(=O)[C@H](CC(C)C)NC(=O)[C@@H](NC(=O)[C@H](CCCN)NC(=O)[C@H](CCCNC(=N)N)NC(=O)[C@H](Cc1ccc(O)cc1)NC(=O)[C@H](CO)NC(=O)[C@H](CCC(N)=O)NC(=O)[C@@H](NC(=O)[C@H](Cc1ccccc1)NC(=O)[C@@H](NC(=O)[C@H](C)NC(=O)[C@H](CC(=O)O)NC(=O)[C@H](C)NC(=O)[C@H](Cc1ccc(O)cc1)NC)[C@@H](C)CC)[C@@H](C)O)C(C)C)[C@@H](C)CC)C(=O)N[C@@H](CC(=O)O)C(=O)N[C@@H](CCCNC(=N)N)C(=O)NC [Peptide P-27406, [N—Me-Tyr^1, Gln^8, Orn^12, Abu^15, Orn^21, Nle^27, Asp^28]hGHRH(1-29)NH—CH3] (H-[NMeY]ADAIFTQSYR[Orn]VL[Abu]QLSAR[Orn]LLQDI[Nle]DR-NHMe) | 14.5 |

— US9393271B2, “GHRH agonists for islet cell transplantation and function and the treatment of diabetes” (UNIVERSITY OF MIAMI, priority 2012, dated 2016)
